From patent US20170246228A1, “METHOD FOR SUPPRESSING PROLIFERATION AND/OR INDUCING APOPTOSIS OF CANCER CELLS” (Maruhachi Muramatsu, Inc., priority 2016, published 2017)

Each molecule was assayed on MDA-MB-231 cells (assay: Cell proliferation of MDA-MB-231 cells with inhibitors that induce cell-cycle arrest, 3 days of culture). Details: absence of S. horneri active component, butyrate 10 and 100 μM, roscovitine 10 and 100 nM, sulforaphane 1 and 10 nM, FIG. 2(A).
Type: cell-based, human
Procedure: Cells were detached from each culture dishes using 0.2% trpysin plus 0.02% EDTA in Ca^2+/Mg^2+-free PBS for 2 min at 37° C., cells were collected after centrifugation. Cells were resuspended on PBS solution and stained with eosin. Cell numbers were counted under a microscope using a Hemocytometer plate. For each dish, we took the average of two countings.
Data are expressed as the mean±standard deviation (SD). Statistical significance was determined using GraphPad InStat version 3 for Windows XP (GraphPad Software Inc. La Jolla, Calif.). Multiple comparisons were performed by one-way analysis of variance (ANOVA) with Tukey-Kramer multiple comparisons post-test for parametric data as indicated. Data indicated P<0.05 was considered statistically significant.
Breast cancer MDA-MB-231 cells (1×10^5/ml per well) were cultured in a 24-well plate in DMEM containing 10% FBS and 1% P/S for 3 days in the presence or absence of S. horneri active component (50 μg/ml) with or without sodium butyrate (10 and 100 μM), roscovitine (10 and 100 nM) or sulforaphane (1 and 10 nM). Upon completion of culture, the cells were detached from wells, and the number of cells was counted and statistical processing was performed in accordance with the methods described in 2-1-2 and 2-1-3.
For `CCCC(=O)[O-].[Na+]` [butyrate, sodium butyrate], the “proliferation of MDA-MB-231 cells in the presence of the inhibitor alone” value (“proliferation … of the inhibitor alone” for short) was “suppressed”. With `CC[C@H](CO)Nc1nc(NCc2ccccc2)c2ncn(C(C)C)c2n1` [roscovitine] the “proliferation … of the inhibitor alone” value was “suppressed”. With `C[S+]([O-])CCCCN=C=S` (stereo not drawn) [sulforaphane] the “proliferation … of the inhibitor alone” value was “suppressed”.
